The values that follow come from patent US11168052B2, “Carbamate derivative compounds, processes for preparing them and their uses” (BIO-PHARM SOLUTIONS CO., LTD., priority 2016, dated 2021).

The subject of experiment [1] is CFA-induced pain model in rats. The experiment in a line: Antiallodynic activity on Complete Freund's Adjuvant (CFA)-induced inflammatory pain model. The experiment is classed as in vivo, Sprague-Dawley rats. As to conditions: 50 mg/kg intraperitoneally, von Frey threshold relative to sham, 0.5 hr after administration; for response vs control in vivo at 50 mg/kg: Rattus norvegicus, ip, read-out: Efficacy of 50 mg/kg(%). The method, then: Male, Sprague-Dawley rats (210-250 g, Nara Bio, Korea) were habituated for 1 week before surgery and allowed free access to food and water throughout the experimentation. Room temperature and humidity were maintained at 24±2 and 50±10%, respectively.
CFA-induced inflammatory pain was induced by the procedure of Nagakura et al. (2003) and Gregory P. et al. (2010) with minor modifications. CFA (sigma, USA) was injected in the right plantar with a 100 ul volume under gaseous anesthesia with isoflurane. Sham controls were injected with 100 ul of saline, and preparation of the vehicle controls were identical to the group treated with compound, except for administration of vehicles without indentical to the vihecle control group.
Tactile sensitivity (Mechanical allodynia) was evaluated using von Frey monofilaments before and after treatment, and animals were include in the study only if the withdrawal threshold value was less than 4 g. One week after CFA injection, CFA-infused animals, sham-operated animal, and vehicle-operated animals were tested for tactile sensitivity with von Frey monofilaments, with 3 trials for each animal. All Animals were placed in a stainless steel mashe chamber and habituated for 30 min in the test cage. The tactile sensitivity for ipsilateral hind paw was measured using the up-and-down method (Dixon, 1980) with seven von Frey monofilaments (0.4, 1, 2, 4, 6, 8, and 15 g) to 3 trials. The tactile sensitivity test was followed by Dixon's method (Dixon, 1980). The 50% paw withdrawal threshold for each paw was calculated using the following formula: [Xth]log=[vFr]log+ky where [vFr] is the force of the last von Frey used, k=0.2249 which is the average interval (in log units) between the von Frey monofilaments, and y is a value that depends upon the pattern of withdrawal responses (Dixon, 1980).
Antiallodynic effect of compounds was evaluated at the dose of 50 mg/kg (n=4-6), intraperitoneally administrated in a volume of 5 ul/g bw in a vehicle of 30% (v/v) PEG or 20% (v/v) Tween 80. The test was performed peak time of efficacy (0.5 hr) after compound administration.
The relative values compared to the sham (% control) were calculated and shown in Table 5, which show an antiallodynic effect of Compound 1 on CFA-induced pain model in rats.

The subject of experiment [2] is MES (electroshock) seizure in mice. The experiment in a line: Anti-epilepsy activity, MES test in mouse. The experiment is classed as in vivo, ICR mice. The method, then:
(§1) In the MES test (Ref., G. Villetti et al. Neuropharmacology 40(2001) 866-878), an electrical stimulus (mice: 50 mA, 60 Hz, 0.2 sec, and rats: 150 mA, 60 Hz, 0.2 sec in the test animal) supplied by an 11A Shocker (IITC Life Science Company) was delivered through corneal electrodes. All mice or rats assigned to any electroshock at peak time were treated with each test compound sample which was dissolved in 20% tween 80 prepared by saline solvent applied orally before the test. […] Three doses of the test sample were administered orally to 9-18 animals (3-6 mice per dose) for evaluating the respective doses at which 50% of the animals were protected from seizure (ED50). The ED50 value (median effective dose) was calculated by Litchfield and Wicoxon log-probit method which is a dose-response relationship. Experimental animals, male ICR mice and male SD rats, were purchased from OrientBio, Samtako, or Nara Biotech, Korea, and housed in cages (4-5 mice or 3 rats per cage) for 4-5 days. The range of mice body weight was between 19 and 25 grams and range of rats body weight was between 100 and 130 grams.

For experiment [3], the system named is MES (electroshock) seizure in rats. Nature of the experiment: Anti-epilepsy activity, MES test in rats. In kind it is in vivo, SD rats. To be noted: Rattus norvegicus, po. How it is done:
as §1

The mark [4] stands for this setting: po, read-out: MES test (po) efficacy %.

A word on the ED50: it is the midpoint of the dose-response relation. A higher ED50 goes with a need for a large dose.

Turning to “8-chloro-2-hydroxy-1,2,3,4-tetrahydronaphthalen-1-yl carbamate (mixture of SR & RS) [Example 20]”, the “Efficacy of 50 mg/kg(%)” value in experiment [1] worked out at 40.2%. The “MES test (po) ED50” value in experiment [2] is 31.4 mg/kg. Compound `NC(=O)O[C@@H]1CCc2cccc(Cl)c2[C@H]1O` [Example 4, (1R, 2R)-8-chloro-1-hydroxy-1,2,3,4-tetrahydronaphthalen-2-yl carbamate] gave an ED50 in experiment [2] (po) of 80.6 mg/kg.

Regarding `NC(=O)O[C@@H]1CCc2ccc(Cl)cc2[C@@H]1O` [Example 6, (1S, 2R)-7-chloro-1-hydroxy-1,2,3,4-tetrahydronaphthalen-2-yl carbamate], in experiment [1], the response vs control in vivo at 50 mg/kg amounted to 26.8%. Also, the responders at 100 mg/kg in experiment [2] (setting [4]) is 33.3%. For the compound `NC(=O)O[C@H]1CCc2ccc(Cl)cc2[C@H]1O` [Example 7], the response vs control in vivo at 50 mg/kg in experiment [1] came out at 28.6%. Also, the responders at 150 mg/kg in experiment [2] (po, dose 150 mg/kg, read-out: MES test (po) efficacy %) came out at 100%. For `NC(=O)O[C@@H]1CCc2cc(Cl)ccc2[C@@H]1O` [Example 8, (1S, 2R)-6-chloro-1-hydroxy-1,2,3,4-tetrahydronaphthalen-2-yl carbamate], the responders at 100 mg/kg in experiment [2] (setting [4]) stood at 100%.

Regarding `NC(=O)O[C@H]1CCc2cc(Cl)ccc2[C@H]1O` [Example 9, (1R, 2S)-6-chloro-1-hydroxy-1,2,3,4-tetrahydronaphthalen-2-yl carbamate], the response vs control in vivo at 50 mg/kg in experiment [1] stood at 27.5%. For `NC(=O)O[C@@H]1CCc2cccc(I)c2[C@@H]1O` [Example 12, (1S, 2R)-1-hydroxy-8-iodo-1,2,3,4-tetrahydronaphthalen-2-yl carbamate], in experiment [1], the response vs control in vivo at 50 mg/kg turned out to be 38.5%. In addition, the responders at 100 mg/kg in experiment [2] (setting [4]) came to 100%.

As to `NC(=O)O[C@H]1CCc2cccc(I)c2[C@H]1O` [Example 13, (1R, 2S)-1-hydroxy-8-iodo-1,2,3,4-tetrahydronaphthalen-2-yl carbamate], in experiment [1], the response vs control in vivo at 50 mg/kg is 43.1%. Further, the responders at 100 mg/kg in experiment [2] (setting [4]) amounted to 33.3%. Regarding `NC(=O)O[C@@H]1CCc2ccccc2[C@@H]1O` [Example 14, (1S, 2R)-1-hydroxy-1,2,3,4-tetrahydronaphthalen-2-yl carbamate], in experiment [2] (setting [4]), the responders at 100 mg/kg was determined as 100%. With `NC(=O)O[C@H]1c2ccccc2CC[C@H]1O` [Example 16, (1S, 2R)-2-hydroxy-1,2,3,4-tetrahydronaphthalen-1-yl carbamate], in experiment [2] (setting [4]), the responders at 100 mg/kg was found to be 50%.

Take `NC(=O)O[C@H]1c2cc(Cl)ccc2CC[C@H]1O` [Example 21, (1S, 2R)-7-chloro-2-hydroxy-1,2,3,4-tetrahydronaphthalen-1-yl carbamate]: the response vs control in vivo at 50 mg/kg in experiment [1] turned out to be 28.9%. In addition, in experiment [2] (setting [4]), the responders at 100 mg/kg came out at 33.3%.

On to `NC(=O)O[C@@H]1c2cc(Cl)ccc2CC[C@@H]1O` [Example 22, (1R, 2S)-7-chloro-2-hydroxy-1,2,3,4-tetrahydronaphthalen-1-yl carbamate], for which the response vs control in vivo at 50 mg/kg in experiment [1] is 35.7%. For the same compound, in experiment [2] (setting [4]), the responders at 100 mg/kg was 100%. For `NC(=O)O[C@H]1c2ccc(Cl)cc2CC[C@H]1O` [Example 23, (1S, 2R)-6-chloro-2-hydroxy-1,2,3,4-tetrahydronaphthalen-1-yl carbamate], in experiment [2] (setting [4]), the responders at 100 mg/kg came out at 33.3%.

On to `NC(=O)O[C@H]1c2c(I)cccc2CC[C@H]1O` [Example 27, (1S, 2R)-2-hydroxy-8-iodo-1,2,3,4-tetrahydronaphthalen-1-yl carbamate], for which the response vs control in vivo at 50 mg/kg in experiment [1] stood at 37.8%. Besides, the responders at 200 mg/kg in experiment [2] (po, dose 200 mg/kg, read-out: MES test (po) efficacy %) worked out at 100%. Take `NC(=O)O[C@@H]1c2c(I)cccc2CC[C@@H]1O` [Example 28, (1R, 2S)-2-hydroxy-8-iodo-1,2,3,4-tetrahydronaphthalen-1-yl carbamate]: the response vs control in vivo at 50 mg/kg in experiment [1] was 42.1%. Also, the responders at 100 mg/kg in experiment [2] (setting [4]) turned out to be 100%.

As to `NC(=O)O[C@@H]1CCc2cccc(Cl)c2[C@@H]1OC(N)=O` [Example 29, (1S, 2R)-8-chloro-1,2,3,4-tetrahydronaphthalen-1,2-diyldicarbamate], the response vs control in vivo at 50 mg/kg in experiment [1] was determined as 30.3%. Also, in experiment [2] (setting [4]), the responders at 100 mg/kg was determined as 66.6%. As to `NC(=O)O[C@H]1CCc2cccc(Cl)c2[C@H]1OC(N)=O` [Example 30, (1R, 2S)-8-chloro-1,2,3,4-tetrahydronaphthalen-1,2-diyl dicarbamate], the response vs control in vivo at 50 mg/kg in experiment [1] was determined as 28.4%. In experiment [2] (po, dose 400 mg/kg, read-out: MES test (po) efficacy %), the responders at 400 mg/kg is 33.3%. As to `NC(=O)O[C@@H]1CCc2cccc(I)c2[C@@H]1OC(N)=O` [Example 36, (1S, 2R)-8-iodo-1,2,3,4-tetrahydronaphthalen-1,2-diyl dicarbamate], in experiment [1], the response vs control in vivo at 50 mg/kg worked out at 72.2%. The responders at 300 mg/kg in experiment [2] (setting [4]) stood at 33.3%. On to `NC(=O)O[C@H]1CCc2cccc(I)c2[C@H]1OC(N)=O` [Example 37, (1R, 2S)-8-iodo-1,2,3,4-tetrahydronaphthalen-1,2-diyl dicarbamate], for which the responders at 300 mg/kg in experiment [2] (setting [4]) was 33.3%.

Consider `NC(=O)O[C@@H]1CCc2ccccc2[C@@H]1OC(N)=O` [Example 38, (1S, 2R)-1,2,3,4-tetrahydronaphthalen-1,2-diyl dicarbamate], for which, in experiment [2] (setting [4]), the responders at 100 mg/kg was determined as 25%. Consider `NC(=O)O[C@H]1Cc2cccc(F)c2[C@H]1O` [Example 56, (1R, 2S)-7-fluoro-1-hydroxy-2,3-dihydro-1H-inden-2-yl carbamate], for which the response vs control in vivo at 50 mg/kg in experiment [1] is 43.2%. In addition, in experiment [2] (po), the ED50 stood at 45.6 mg/kg. Consider `NC(=O)O[C@H]1c2cccc(Cl)c2C[C@H]1O` [Example 62, (1S, 2R)-4-chloro-2-hydroxy-2,3-dihydro-1H-inden-1-yl carbamate], for which the 50% effective dose (ED50) was found to be 53.1 mg/kg in experiment [2] (po) and 24.5 mg/kg in experiment [3]. Turning to `NC(=O)O[C@@H]1Cc2c(Cl)cccc2[C@@H]1O` [Example 68, (1S, 2R)-4-chloro-1-hydroxy-2,3-dihydro-1H-inden-2-yl carbamate], the ED50 in experiment [2] (po) came to 61.2 mg/kg; in experiment [3] it was 14.4 mg/kg. `NC(=O)O[C@H]1c2c(F)cccc2C[C@H]1O` [Example 69, (1S, 2R)-7-fluoro-2-hydroxy-2,3-dihydro-1H-inden-1-yl carbamate]: the responders at 100 mg/kg in experiment [2] (setting [4]) was determined as 33.3%. As for `COCO[C@@H]1c2c(Cl)cccc2C[C@@H]1OC(N)=O` [Example 72, (1R, 2S)-7-chloro-1-(methoxymethoxy)-2,3-dihydro-1H-inden-2-yl carbamate], in experiment [1], the response vs control in vivo at 50 mg/kg was found to be 21.4%. For `COCO[C@H]1Cc2cccc(Cl)c2[C@H]1OC(N)=O` [Example 76, (1R, 2S)-7-chloro-2-(methoxymethoxy)-2,3-dihydro-1H-inden-1-yl carbamate], in experiment [1], the response vs control in vivo at 50 mg/kg worked out at 59.2%. Besides, the responders at 100 mg/kg in experiment [2] (setting [4]) came out at 100%. For `NC(=O)O[C@H]1Cc2cccc(Cl)c2[C@H]1OC(N)=O` [Example 78, (1R, 2S)-7-chloro-2,3-dihydro-1H-inden-1,2-diyl dicarbamate], the response vs control in vivo at 50 mg/kg in experiment [1] is 62.3%. In addition, the responders at 100 mg/kg in experiment [2] (setting [4]) is 33.3%.
